Source: US20240173255A1, “Polymeric Micelle Coated with Chain-Like Poorly Soluble Drug, Preparation Method and Application” (Hangzhou Hanjing Biotechnology Co., Ltd, priority 2021, published 2024)
In brackets after ≈: the same amount, converted by molar mass.

Assay: Solubility of series A to E drugs in water and 10% Soluplus solution
Assay type: physicochemical
Conditions: for Solubility in 10% Soluplus: 10% Soluplus solution
Source text: The solubilities of the poorly soluble chain-like drugs of the series A to E according to the present disclosure in water and a 10% Soluplus solution are shown in Table 2.

O=c1c2ccccc2[se]n1CCCn1[se]c2ccccc2c1=O [CPD1]
Solubility in 10% Soluplus: 200 µg/mL (≈ 458 µM) | Solubility in water: 4 µg/mL (≈ 9.17 µM)

O=c1c2ccccc2[se]n1CCCCn1[se]c2ccccc2c1=O [CPD2]
Solubility in 10% Soluplus: 200 µg/mL (≈ 444 µM) | Solubility in water: 1 µg/mL (≈ 2.22 µM)

O=c1c2ccccc2[se]n1CCCCCn1[se]c2ccccc2c1=O [CPD3]
Solubility in 10% Soluplus: 300 µg/mL (≈ 646 µM) | Solubility in water: 1 µg/mL (≈ 2.15 µM)

O=c1c2ccccc2[se]n1CCCCCCCn1[se]c2ccccc2c1=O [CPD5]
Solubility in 10% Soluplus: 500 µg/mL (≈ 1020 µM) | Solubility in water: 1 µg/mL (≈ 2.03 µM)

O=c1c2cccc(F)c2[se]n1CCCCn1[se]c2c(F)cccc2c1=O [CPD7]
Solubility in 10% Soluplus: 250 µg/mL (≈ 514 µM) | Solubility in water: 2 µg/mL (≈ 4.11 µM)

O=c1c2cccc(F)c2[se]n1CCCCCn1[se]c2c(F)cccc2c1=O [CPD8]
Solubility in 10% Soluplus: 300 µg/mL (≈ 600 µM) | Solubility in water: 1 µg/mL (≈ 2 µM)

O=c1c2cccc(F)c2[se]n1CCCCCCn1[se]c2c(F)cccc2c1=O [CPD9]
Solubility in 10% Soluplus: 800 µg/mL (≈ 1560 µM) | Solubility in water: 1 µg/mL (≈ 1.94 µM)

O=c1c2cccc(F)c2[se]n1CCCCCCCn1[se]c2c(F)cccc2c1=O [CPD10]
Solubility in 10% Soluplus: 600 µg/mL (≈ 1140 µM) | Solubility in water: 1 µg/mL (≈ 1.89 µM)

COc1ccc2[se]n(CCCn3[se]c4ccc(O)cc4c3=O)c(=O)c2c1 [CPD11]
Solubility in 10% Soluplus: >1000 µg/mL | Solubility in water: 15 µg/mL (≈ 31.1 µM)

COc1ccc2[se]n(CCCCCn3[se]c4ccc(O)cc4c3=O)c(=O)c2c1 [CPD13]
Solubility in 10% Soluplus: >1000 µg/mL | Solubility in water: 10 µg/mL (≈ 19.6 µM)

COc1ccc2[se]n(CCCCCCCn3[se]c4ccc(O)cc4c3=O)c(=O)c2c1 [CPD15]
Solubility in 10% Soluplus: >1000 µg/mL | Solubility in water: 10 µg/mL (≈ 18.6 µM)

COc1ccc2[se]n(CCCCn3[se]c4ccc(OCCCN=[N+]=[N-])cc4c3=O)c(=O)c2c1 [CPD17]
Solubility in 10% Soluplus: >1000 µg/mL | Solubility in water: <10 µg/mL

COc1ccc2[se]n(CCCCCn3[se]c4ccc(OCCCN=[N+]=[N-])cc4c3=O)c(=O)c2c1 [CPD18]
Solubility in 10% Soluplus: >1000 µg/mL | Solubility in water: <10 µg/mL

COc1ccc2[se]n(CCCCCCn3[se]c4ccc(OCCCN=[N+]=[N-])cc4c3=O)c(=O)c2c1 [CPD19]
Solubility in 10% Soluplus: >1000 µg/mL | Solubility in water: <10 µg/mL

COc1ccc2[se]n(CCCCCCCn3[se]c4ccc(OCCCN=[N+]=[N-])cc4c3=O)c(=O)c2c1 [CPD20]
Solubility in 10% Soluplus: >1000 µg/mL | Solubility in water: <10 µg/mL

COc1ccc2[se]n(CCCn3[se]c4ccc(OCCCN(C)C)cc4c3=O)c(=O)c2c1 [CPD21]
Solubility in 10% Soluplus: >1000 µg/mL | Solubility in water: <10 µg/mL

COc1ccc2[se]n(CCCCn3[se]c4ccc(OCCCN(C)C)cc4c3=O)c(=O)c2c1 [CPD22]
Solubility in 10% Soluplus: >1000 µg/mL | Solubility in water: <10 µg/mL

COc1ccc2[se]n(CCCCCn3[se]c4ccc(OCCCN(C)C)cc4c3=O)c(=O)c2c1 [CPD23]
Solubility in 10% Soluplus: >1000 µg/mL | Solubility in water: <10 µg/mL

COc1ccc2[se]n(CCCCCCn3[se]c4ccc(OCCCN(C)C)cc4c3=O)c(=O)c2c1 [CPD24]
Solubility in 10% Soluplus: >1000 µg/mL | Solubility in water: <10 µg/mL

COc1ccc2[se]n(CCCCCCCn3[se]c4ccc(OCCCN(C)C)cc4c3=O)c(=O)c2c1 [CPD25]
Solubility in 10% Soluplus: >1000 µg/mL | Solubility in water: <10 µg/mL

COc1ccc2[se]n(CCCn3[se]c4ccc(OCCCn5nnnc5C)cc4c3=O)c(=O)c2c1 [CPD26]
Solubility in 10% Soluplus: >1000 µg/mL | Solubility in water: <10 µg/mL

COc1ccc2[se]n(CCCCn3[se]c4ccc(OCCCn5nnnc5C)cc4c3=O)c(=O)c2c1 [CPD27]
Solubility in 10% Soluplus: >1000 µg/mL | Solubility in water: <10 µg/mL

COc1ccc2[se]n(CCCCCn3[se]c4ccc(OCCCn5nnnc5C)cc4c3=O)c(=O)c2c1 [CPD28]
Solubility in 10% Soluplus: >1000 µg/mL | Solubility in water: <10 µg/mL

COc1ccc2[se]n(CCCCCCn3[se]c4ccc(OCCCn5nnnc5C)cc4c3=O)c(=O)c2c1 [CPD29]
Solubility in 10% Soluplus: >1000 µg/mL | Solubility in water: <10 µg/mL

COc1ccc2[se]n(CCCCCCCn3[se]c4ccc(OCCCn5nnnc5C)cc4c3=O)c(=O)c2c1 [CPD30]
Solubility in 10% Soluplus: >1000 µg/mL | Solubility in water: <10 µg/mL

COc1ccc2[se]n(Cc3cccc(Cn4[se]c5ccc(O)cc5c4=O)c3)c(=O)c2c1 [CPD31]
Solubility in 10% Soluplus: >1000 µg/mL | Solubility in water: <10 µg/mL

COc1ccc2[se]n(Cc3cccc(Cn4[se]c5ccc(OCCCN=[N+]=[N-])cc5c4=O)c3)c(=O)c2c1 [CPD32]
Solubility in 10% Soluplus: >1000 µg/mL | Solubility in water: <10 µg/mL

COc1ccc2[se]n(Cc3cccc(Cn4[se]c5ccc(OCCCN(C)C)cc5c4=O)c3)c(=O)c2c1 [CPD33]
Solubility in 10% Soluplus: >1000 µg/mL | Solubility in water: <10 µg/mL

COc1ccc2[se]n(Cc3cccc(Cn4[se]c5ccc(OCCCn6nnnc6C)cc5c4=O)c3)c(=O)c2c1 [CPD34]
Solubility in 10% Soluplus: >1000 µg/mL | Solubility in water: <10 µg/mL

O=C(CCCCCn1[se]c2ccccc2c1=O)Oc1ccccc1 [CPD36]
Solubility in 10% Soluplus: >1000 µg/mL | Solubility in water: <10 µg/mL

O=C(CCCCCn1[se]c2ccccc2c1=O)Nc1ccccc1 [CPD37]
Solubility in 10% Soluplus: >1000 µg/mL | Solubility in water: <10 µg/mL

O=C(NCCCCCn1[se]c2ccccc2c1=O)c1ccccc1 [CPD38]
Solubility in 10% Soluplus: >1000 µg/mL | Solubility in water: <10 µg/mL
